In US20200157144A1, “ANTIMICROBIAL PEPTIDOMIMETICS” (priority 2017, published 2020):
Converted amounts (≈) assume the structure as drawn. Square brackets hold non-standard residues; d marks the D form. Peptide text beside a SMILES is read from it. Bip(4'-Cl) = N[C@@H](Cc1ccc(-c2ccc(Cl)cc2)cc1)C(=O)O; dBip(4'-Cl) = N[C@H](Cc1ccc(-c2ccc(Cl)cc2)cc1)C(=O)O; Bip(4'-Me) = Cc1ccc(-c2ccc(C[C@H](N)C(=O)O)cc2)cc1; Bip = N[C@@H](Cc1ccc(-c2ccccc2)cc1)C(=O)O; Phe(4-Cl) = N[C@@H](Cc1ccc(Cl)cc1)C(=O)O; Phe(4-I) = N[C@@H](Cc1ccc(I)cc1)C(=O)O

Each molecule was assayed on Mupirocin-resistant MRSA ATCC-BAA-1556 (assay: microbe, parasite or virus in culture). Conditions: ATCC-BAA-1556; read-out: MIC.
Assay type: cell-based, Staphylococcus aureus
Protocol: The MICs of test compounds were determined using the microdilution method from the Clinical and Laboratory Standards Institute (CLSI) guidelines (Clinical and Laboratory Standards Institute. Methods for dilution antimicrobial susceptibility tests for bacteria that grow aerobically; approved standard—ninth edition. Document M07-A9. Vol. 32 No. 2. Wayne, Pa.: CLSI; 2012). Briefly, bacteria were grown fresh from frozen stock in Mueller Hinton 2 (MH2) agar at 37° C. After an overnight incubation, 5 bacteria colonies were selected to grow in cation-adjusted MH2 broth in a shaking incubator (140 RPM) at 37° C. Cells were grown to an optical density (OD600) of 0.15-0.16 determined using a spectrophotometer (Molecular Devices Spectra Max Plus), which corresponds to ˜1×10^8 CFU/mL. Test compounds were constituted into 4 mM DMSO stock solutions and then subjected to 2-fold serial dilution in a 96-well plate with concentrations ranging from 100 to 0.195 μM in duplicates. […] of microbial culture containing ˜1×10^6 CFU/mL of microbes in the respective broths was introduced into each well containing 50 μL of compound solution. After an overnight incubation at 35° C., (220 RPM), OD600 measurements were conducted using the microplate spectrophotometer. The MIC was defined as the lowest antibiotic or compound concentration (μM) required to inhibit bacteria growth.
The 11th well was used as the growth control well (medium with bacterial inoculums, no antibacterial) while the 12th well was the sterility control well (medium only).

Row | Structure (SMILES) | MIC [µM]
1 | N=C(N)NCCC[C@H](NC(=O)[C@H](Cc1ccc(-c2ccccc2)cc1)NC(=O)[C@H](CCCNC(=N)N)NC(=O)[C@@H](N)Cc1ccc(I)cc1)C(N)=O [Compound 13] (H-[Phe(4-I)]R[Bip]R-NH2) | 50 (≈ 41.3 µg/mL)
2 | N=C(N)NCCC[C@H](NC(=O)[C@H](Cc1ccc(-c2ccccc2)cc1)NC(=O)[C@H](CCCNC(=N)N)NC(=O)[C@@H](N)Cc1ccc(-c2ccc(-c3ccccc3)cc2)cc1)C(N)=O [Compound 25] | 100 (≈ 85.2 µg/mL)
3 | Cc1ccc(-c2ccc(C[C@H](NC(=O)[C@H](CCCNC(=N)N)NC(=O)[C@@H](N)Cc3ccc(-c4ccccc4)cc3)C(=O)N[C@@H](CCCNC(=N)N)C(N)=O)cc2)cc1 [Compound 22] (H-[Bip]R[Bip(4'-Me)]R-NH2) | 12.5 (≈ 9.87 µg/mL)
4 | N=C(N)NCCC[C@H](NC(=O)[C@H](Cc1ccc(-c2ccc(Cl)c(Cl)c2)cc1)NC(=O)[C@H](CCCNC(=N)N)NC(=O)[C@@H](N)Cc1ccc(-c2ccccc2)cc1)C(N)=O [Compound 18] | 6.25 (≈ 5.28 µg/mL)
5 | N=C(N)NCCCCNC(=O)[C@H](Cc1ccc(-c2ccc(Cl)cc2)cc1)NC(=O)[C@H](CCCNC(=N)N)NC(=O)[C@@H](N)Cc1ccc(-c2ccc(Cl)cc2)cc1 [Compound 41] | 6.25 (≈ 5.01 µg/mL)
6 | N=C(N)NCCC[C@H](NC(=O)[C@H](Cc1ccc(-c2ccccc2)cc1)NC(=O)[C@H](CCCNC(=N)N)NC(=O)[C@@H](N)Cc1ccc(-c2ccc(Cl)cc2)cc1)C(N)=O [Compound 15] (H-[Bip(4'-Cl)]R[Bip]R-NH2) | 6.25 (≈ 5.07 µg/mL)
7 | N=C(N)NCCC[C@H](NC(=O)[C@H](Cc1ccc(-c2cccc(Cl)c2)cc1)NC(=O)[C@H](CCCNC(=N)N)NC(=O)[C@@H](N)Cc1ccc(-c2ccccc2)cc1)C(N)=O [Compound 28] | 6.25 (≈ 5.07 µg/mL)
8 | N=C(N)NCCC[C@H](NC(=O)[C@H](Cc1ccc(-c2ccc(Cl)cc2)cc1)NC(=O)[C@H](CCCNC(=N)N)NC(=O)[C@@H](N)Cc1ccc(-c2ccccc2)cc1)C(N)=O [Compound 16] (H-[Bip]R[Bip(4'-Cl)]R-NH2) | 6.25 (≈ 5.07 µg/mL)
9 | Cc1ccc(-c2ccc(C[C@H](N)C(=O)N[C@@H](CCCNC(=N)N)C(=O)N[C@@H](Cc3ccc(-c4ccccc4)cc3)C(=O)N[C@@H](CCCNC(=N)N)C(N)=O)cc2)cc1 [Compound 21] (H-[Bip(4'-Me)]R[Bip]R-NH2) | 12.5 (≈ 9.87 µg/mL)
10 | N=C(N)NCCC[C@H](NC(=O)[C@H](Cc1ccc(-c2ccccc2)cc1)NC(=O)[C@H](CCCNC(=N)N)NC(=O)[C@@H](N)Cc1ccc(-c2ccccc2)cc1)C(N)=O [Compound 31] (H-[Bip]R[Bip]R-NH2) | 100 (≈ 77.6 µg/mL)
11 | NC(=O)NCCC[C@@H](N)C(=O)N[C@H](Cc1ccc(-c2ccc(Cl)cc2)cc1)C(N)=O [Compound 38] | >100
12 | N=C(N)NCCCCNC(=O)[C@H](Cc1ccc(-c2ccccc2)cc1)NC(=O)[C@H](CCCNC(=N)N)NC(=O)[C@@H](N)Cc1ccc(-c2ccccc2)cc1 [Compound 1] | 12.5 (≈ 9.16 µg/mL)
13 | N=C(N)NCCC[C@H](NC(=O)[C@H](Cc1ccc(Cl)cc1)NC(=O)[C@H](CCCNC(=N)N)NC(=O)[C@@H](N)Cc1ccc(-c2ccccc2)cc1)C(N)=O [Compound 10] (H-[Bip]R[Phe(4-Cl)]R-NH2) | 100 (≈ 73.4 µg/mL)
14 | N=C(N)NCCC[C@H](NC(=O)[C@H](Cc1ccc(-c2ccccc2)cc1)NC(=O)[C@H](CCCNC(=N)N)NC(=O)[C@@H](N)Cc1ccc(-c2ccccc2)cc1)C(N)=O [Compound 32] (H-[Bip]R[Bip]R-NH2) | 50 (≈ 38.8 µg/mL)
15 | N=C(N)NCCC[C@@H](NC(=O)[C@H](N)Cc1ccc(-c2ccc(Cl)cc2)cc1)C(=O)N[C@H](Cc1ccc(-c2ccc(Cl)cc2)cc1)C(=O)N[C@H](CCCNC(=N)N)C(=O)N[C@H](Cc1ccc(-c2ccc(Cl)cc2)cc1)C(N)=O [Compound 40] (H-[dBip(4'-Cl)][dR][dBip(4'-Cl)][dR][dBip(4'-Cl)]-NH2) | >100
16 | N=C(N)NCCC[C@H](NC(=O)[C@@H](Cc1ccc(-c2ccc(Cl)cc2)cc1)NC(=O)[C@H](CCCNC(=N)N)NC(=O)[C@@H](N)Cc1ccc(-c2ccc(Cl)cc2)cc1)C(N)=O [Compound 44] (H-[Bip(4'-Cl)]R[dBip(4'-Cl)]R-NH2) | 6.25 (≈ 5.28 µg/mL)
